These results are taken from article PMC9413514, “Accessing Lipophilicity and Biomimetic Chromatography Profile of Biologically Active Ingredients of Botanicals Used in the Treatment of Inflammatory Bowel Disease” (Pharmaceuticals, 2022).

A short description of data set [1]: C18-TLC assay (hydrophobicity). The format is physicochemical. The following applies: for RM0 (TLC hydrophobicity index, intercept of linear equation): RP-18 TLC, PBS pH 7.4/methanol, extrapolated to zero organic modifier; for spot migration in C18-TLC: regardless the percentage of the organic modifier in the mobile phase. The source says: In TLC measurements RF value depends on the chemical structure of analyte and its interaction with stationary and mobile phase. […] As it was expected, with increase in the percentage of organic modifier in the mobile phase the increase in RF values can be seen with accompanied decrease in RM values expressed as RM = log(1/RF - 1). Measured RF values were in the range from 0.1 to 0.7 obtained in a wide range of mobile phase organic modifier concentrations. […] Increasing concentration of the organic modifier in the mobile phase caused a slower decrease in the RM values for less hydrophobic analytes than for more hydrophobic ones. […] Increase in the hydrophobicity within curcuminoids and andrographolides is related to increase in lipophilicity determined by shake-flask method (Table 3). Stock solutions of analytes and calibration standards were prepared by dissolving 10 mg of each solute in 10 mL of methanol and kept at 4 °C. Working solutions were freshly prepared at the beginning of each day by dilution of the stock solutions to 100 μg/mL with methanol for TLC measurements or mobile phase for HPLC measurements. Before use, the samples were sonicated (Elmasonic […]) for 10 min at 25 °C and all working solutions were filtered through 0.2 μm polyethersulfone filters (Obrnuta faza). To protect analytes from photodegradation, the amber glass HPLC vials were used. Analyses were carried out using a commercially available 10 cm x 20 cm RP-18 TLC plates with fluorescent indicator (Merck KGaA). 5 μL of each working solution ([…]) was applied to the plates as 5 mm bends, 10 mm from the lower edge and 15 mm from sides of plates. The mobile phases were prepared by mixing the respective amounts of PBS (20 mM, pH 7.4) and methanol from 50% to 80% of organic solvent in 5% increment. The vertical flat-bottom chamber ([…], Switzerland) with a stainless-steel lid was saturated with mobile phase for 30 min. The plates were developed to a distance of 9 cm at room temperature, dried in the open air for 5 min and visualized under λ = 254 nm UV light (UV Cabinet with Dual Wavelength UV lamp by Camag).

Data set [2] in a line: IAM-HPLC assay (lipophilicity, affinity to phospholipids). In kind it is physicochemical. The protocol: IAM columns provide potential to simulate membrane permeability since the amphiphilic character of phospholipid functional groups plays an important role in IAM retention especially when charged molecules are analysed.
(§1) Stock solutions of analytes and calibration standards were prepared by dissolving 10 mg of each solute in 10 mL of methanol and kept at 4 °C. Working solutions were freshly prepared at the beginning of each day by dilution of the stock solutions to 100 μg/mL with methanol for TLC measurements or mobile phase for HPLC measurements. Before use, the samples were sonicated (Elmasonic XtraTT, Elma Schmidbauer) for 10 min at 25 °C and all working solutions were filtered through 0.2 µm polyethersulfone filters (Obrnuta faza). To protect analytes from photodegradation, the amber glass HPLC vials were used.
C18-HPLC assay was carried out at Agilent HPLC 1100 and Zorbax SB C18 chromatographic column (length 250 mm.6 mm, particle size 5 µm) by Agilent Technologies, while IAM-HPLC assay was conducted using IAM P.C.DD2 chromatographic column (length 50 mm, i.d. 3.0 mm, particle size […]) by Regis Technologies (Morton Grove, IL, USA). Retention data were collected at 25.0 ± 0.1 °C using isocratic method working with mobile phases, mixing the respective amounts of PBS (10 mM, pH 7.4) and methanol from 35% to 80% of organic solvent in 5% increment. Each mobile phase was shaken vigorously and filtrated through membrane filter, no. 66, diameter 47 mm, pore size 0.45 µm by Supelco and degassed by sonication 5 min before use. The injection volume was set at 10 µL, and the measurements were carried out at flow rate 1.0 mL/min. Natrium nitrate solution (0.1 mg/mL in mobile phase) was used as the marker of dead-time. The absorbance of the analytes during a chromatographic run was collected in the spectral range of 200–400 nm, and the detection wavelength for each analyte was the one providing the maximum peak height.

Data set [3] concerns the target T1, human serum albumin (HSA) (Homo sapiens, UniProt P02768).
T1 construct: purchased ChromTech (Cedex, France) Chiralpak-HSA
In words: HSA-HPAC assay (plasma protein binding). In kind it is in vitro ADME. The following applies: Chiralpak-HSA, pH 7.4, 25 °C; spread is RSD in %.
Description: (§2) The gradient retention times obtained by HSA-HPAC and AGP-HPAC assays were standardized using a calibration set of compounds with known percentage of plasma protein binding data and procedure described in our previously published study. […] This verification assured that the protein affinity indices obtained by HPAC assays depict not only unspecific generally lipophilicity-driven interactions, but also highly specific recognition forces responsible of enantioselectivity.
as §1
(§3) The binding of biologically active compounds to the plasma proteins was investigated using affinity chromatographic columns by ChromTech (Cedex, France) containing immobilized human serum albumin (HSA) (Chiralpak-HSA, length 50 mm, i.d. 4.6 mm, particle size 5 µm) and α1-acid glycoprotein (AGP) (Chiralpak-AGP, length 50 mm, i.d. 4.6 mm, particle size 5 µm) and Agilent HPLC 1100 instrument. The 20 mM potassium phosphate buffer with the pH adjusted to 7.4 and iso-propanol were used as mobile phase components A and B. Retention data were collected at 25.0 ± 0.1 °C using gradient program as follows: 0 min/0% B, 6 min/30% B, 15 min/30% B and 20 min/0% B. Injection volume was set at 10 µL and the measurements were carried out at 25.0 ± 0.1 °C with flow rate of 1.5 mL/min. The absorbance of the analytes during a chromatographic run was collected in the spectral range 200–400 nm, and the detection wavelength for each analyte was the one providing the maximum peak height.

The test system of data set [4] is α1-acid glycoprotein (AGP). As to the kind of experiment: AGP-HPAC assay (plasma protein binding). The format is in vitro ADME. Conditions: Chiralpak-AGP, pH 7.4, 25 °C; spread is RSD in %.
Description: as §2, §1, §3

A short description of data set [5]: Miniaturized shake-flask method (n-octanol/PBS pH 7.4) with HPLC analysis. The following applies: n-octanol/PBS 20 mM pH 7.4, 25 °C; spread is RSD in %; read-out: log D7.4 ± RSD (%) (n = 3). In kind it is physicochemical. The protocol: Stock solution of biologically active ingredients of botanicals used in IBD treatment were prepared using dimethylsulfoxide in concentration of 2 mg/mL. Working solutions were prepared daily by dilution of the stock solutions with PBS (20 mM, pH 7.4) pre-saturated with n-octanol. Before the injection into the HPLC system all solutions were sonicated for 15 min at room temperature in Elmasonic XtraTT (Elma Schmidbauer, Singen, Germany) and filtered through 0.2 μm polyethersulfone filters (Obrnuta faza, Pazin, Croatia).
The pre-saturated solutions of n-octanol and PBS (20 mM, pH 7.4) were used for determination of logarithm of distribution coefficient (log D7.4). The n-octanol and aqueous phase (mixture 1:1, v/v) were mutually saturated for 24 h in an orbital shaker-incubator ES-20/60 (Biosan, Riga, Latvia) at 100 oscillations per min at 25.0 ± 0.1 °C. The prepared mixture was left resting for at least 12 h in the thermostat at 25.0 ± 0.1 °C to ensure complete separation of the two phases. Until analysis, separated saturated solutions were kept in refrigerator at 4 °C.
Shake-flask procedure was conducted in amber 2 mL HPLC vials. 300 μL of the working solution was added to 1500 μL of n-octanol pre-saturated with PBS. To prevent material loss due to volatilisation, the two-phase system nearly filled the entire volume of the test vessels. All n-octanol–buffer mixtures were first vortexed for 1 min and then shaken for 1 h (150 oscillations per min) at room temperature (25.0 ± 0.1 °C) to reach equilibrium and phase distribution. Afterward, the samples were centrifuged using a Z 326 K tabletop centrifuge (HERMLE Labortechnik, Wehingen, Germany) for 30 min at 4000× g and 25 °C to ensure that possible emulsions were removed.
After equilibration and phase separation, the aqueous phase of all samples was analysed on an Agilent HPLC 1100 (Agilent Technologies, Waldbronn, Germany) with diode array detection. Analysis was conducted with a Zorbax SB C18 column (length 150 mm, i.d. 4.6 mm, particle size 5 μm) by Agilent Technologies. 10 min chromatographic runs were performed at 25.0 ± 0.1 °C in isocratic mode using a methanol/water mixture (60/40, v/v) with addition of 0.1% of formic acid as mobile phase modifier at a flow rate of 1.0 mL/min. The mobile phase was filtered through a membrane filter, no. 66, diameter 47 mm, pore size 0.45 µm (Supelco, Bellefonte, PA, USA). The vials were placed in the rack on the autosampler at 25 °C. The injection volume was 10 µL, with a needle offset of 0.5 mm. To avoid any carryover of the analyte-containing n-octanol phase, the outside of the syringe was subsequently washed in methanol before injection. The absorbance of the analytes during a chromatographic run was collected in the spectral range 200–400 nm, and the detection wavelength for each analyte was the one providing the maximum peak height.

Setting [6] is: IAM P.C.DD2 column, PBS pH 7.4/methanol, extrapolated to zero organic modifier.

T1 sequence (P02768 25-609): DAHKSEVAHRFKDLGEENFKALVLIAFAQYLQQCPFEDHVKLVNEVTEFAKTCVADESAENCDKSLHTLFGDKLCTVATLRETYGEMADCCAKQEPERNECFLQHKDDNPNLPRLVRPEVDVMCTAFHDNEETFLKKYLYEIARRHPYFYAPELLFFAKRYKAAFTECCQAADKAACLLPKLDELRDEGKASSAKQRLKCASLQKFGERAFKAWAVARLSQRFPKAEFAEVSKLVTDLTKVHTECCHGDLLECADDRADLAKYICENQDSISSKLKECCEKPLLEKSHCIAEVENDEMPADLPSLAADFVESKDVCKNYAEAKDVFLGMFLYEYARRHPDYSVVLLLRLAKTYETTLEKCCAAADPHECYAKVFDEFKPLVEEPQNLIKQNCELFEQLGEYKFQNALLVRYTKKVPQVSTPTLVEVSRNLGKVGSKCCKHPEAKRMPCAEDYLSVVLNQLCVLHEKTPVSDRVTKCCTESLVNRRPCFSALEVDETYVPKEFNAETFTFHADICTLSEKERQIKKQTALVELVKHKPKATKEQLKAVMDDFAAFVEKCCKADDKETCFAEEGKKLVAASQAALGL

On to `CC(=O)O[C@@H]1CC[C@@]2(C)[C@@H](CC[C@]3(C)[C@@H]2C(=O)C=C2[C@@H]4[C@@H](C)[C@H](C)CC[C@]4(C)CC[C@]23C)[C@@]1(C)C(=O)O` [3-Acetyl-11-keto-β-boswellic Acid, 3-acetyl-11-keto-β-boswellic acid], for which the “RM0 (TLC hydrophobicity index, intercept of linear equation)” value in data set [1] was “y = −0.0722 x + 6.9059”. For the same compound, the “Δ RM0 (increase compared to 11-keto-β-boswellic acid)” value in data set [1] (compared to 11-keto-β-boswellic acid) amounted to 1.53 units. Besides, the “logk0 IAM (HPLC lipophilicity index, intercept of linear equation)” value in data set [2] (pH 7.4) was “y = −0.0703 x + 5.1157”. In data set [3], the “HSA Binding ± RSD (%) (n = 3)” value is recorded as 99.83 ± 0.47%. Besides, the “AGP Binding ± RSD (%) (n = 3)” value in data set [4] was found to be 83.10 ± 0.37%.

`CC1(C)CCC2(C)CCC3(C)C(=CCC4C5(C)CCC(O)C(C)(C(=O)O)C5CCC43C)C2C1` (stereo not drawn) [α-Boswellic Acid, α-boswellic acid]: the “spot migration in C18-TLC” value in data set [1] was “no spot migration was observed”. For the same compound, the “logk0 IAM (HPLC lipophilicity index, intercept of linear equation)” value in data set [2] (setting [6]) is given as “y = −0.0788 x + 6.3109”. Besides, the “HSA Binding ± RSD (%) (n = 3)” value in data set [3] turned out to be 98.94 ± 0.35%. Also, in data set [4], the “AGP Binding ± RSD (%) (n = 3)” value came to 89.22 ± 0.30%.

Take `CC1CCC2(C)CCC3(C)C(=CC(=O)C4C5(C)CCC(O)C(C)(C(=O)O)C5CCC43C)C2C1C` (stereo not drawn) [11-Keto-β-boswellic Acid, 11-keto-β-boswellic acid]: the “RM0 (TLC hydrophobicity index, intercept of linear equation)” value in data set [1] is given as “y = −0.0564 x + 5.3756”. Moreover, in data set [2] (setting [6]), the “logk0 IAM (HPLC lipophilicity index, intercept of linear equation)” value is reported as “y = −0.0570 x + 4.9194”. Also, in data set [3], the “HSA Binding ± RSD (%) (n = 3)” value worked out at 98.09 ± 0.02%. In data set [4], the “AGP Binding ± RSD (%) (n = 3)” value came out at 79.01 ± 0.20%.

For the compound `C[C@H]1[C@H](C)CC[C@]2(C)CC[C@]3(C)C(=CC[C@@H]4[C@@]5(C)CC[C@@H](O)[C@](C)(C(=O)O)[C@@H]5CC[C@]43C)[C@H]12` [β-Boswellic Acid, β-boswellic acid], the “spot migration in C18-TLC” value in data set [1] is reported as “no spot migration was observed”. The “logk0 IAM (HPLC lipophilicity index, intercept of linear equation)” value in data set [2] (pH 7.4) is reported as “y = −0.0816 x + 6.5157”. For the same compound, in data set [3], the “HSA Binding ± RSD (%) (n = 3)” value was 99.79 ± 0.30%. The “AGP Binding ± RSD (%) (n = 3)” value in data set [4] is recorded as 89.15 ± 2.04%.

Consider `COc1cc(/C=C/C(=O)CC(=O)/C=C/c2ccc(O)c(OC)c2)ccc1O` [Curcumin, curcumin], for which the logD at 1 h in data set [5] turned out to be 1.94. The “HSA Binding ± RSD (%) (n = 3)” value in data set [3] came to 97.52 ± 0.20%. The “AGP Binding ± RSD (%) (n = 3)” value in data set [4] turned out to be 83.07 ± 1.10%.
